Reference: patent publication US10072014B2 (Janssen Pharmaceutica NV, priority 2014, dated 2018)

Tests used:
Wiga Wistar rats = test: Reversal of LY-404039-induced decrease of palpebral opening in apomorphine-challenged rats; format: in vivo; conditions: Rattus norvegicus, PO, criterion: cumulative palpebral opening score >26, read-out: ED50 APO LY-404039
Procedure: B) In Vivo Pharmacology 1) Reversal of LY-404039-induced Decrease of Palpebral Opening in Apomorphine-challenged Rats.
Male Wiga Wistar rats (Crl:WI; Charles River Germany; 220±40 g) were housed under standard laboratory conditions (21±2° C.; 50-65% relative humidity; light-dark cycle set at 12 h; lights on at 6.00 h) and fasted overnight prior to the start of the experiments (tap water remained available ad libitum). During the test period, they were housed in individual cages. Palpebral opening was scored every 5 min over the first hour after injection of apomorphine (1.0 mg/kg, i.v.) in animals either pretreated or not pretreated with LY-404039 (2.5 mg/kg, s.c.) at 1 h prior to the apomorphine injection. The animals were also pretreated with test compound or solvent at a predefined interval before apomorphine challenge. The score system was: (5) exophthalmos, (4) wide open, (3) open for three-quarters, (2) half open, (1) open for one-quarter, (0) closed. The scores for palpebral opening were cumulated over the 60-min observation period. A cumulative palpebral opening score>26 was selected for drug-induced reversal of the LY-404039-induced decrease of palpebral opening (occurrence in 3.2% of control animals pretreated with LY-404039 (n=154) versus in 99.5% of control rats not pretreated with LY-404039 (n=6335)). […]

Induction of mydriasis = conditions: Wiga, rat, in vivo, PO, rats
Procedure: 3) Induction of Mydriasis
The pupil diameter of Wiga rats was measured with a microscopic micrometer (1 unit= 1/24 mm). Criteria for drug-induced effects: pupil diameter>25 units for mydriasis (in controls: 1.9%) 1 h post-administration of the test compound (test 1) or 1, 2 or 3 h post-administration of the test compound (test 2, wherein the maximum pupil diameter over the full 3 h period is reported).

ED50 (Induction of mydriasis; maximum pupil diameter >25 units over 1, 2 or 3 h post-administration, read-out: ED50 MYD Test 2): > 40 mg/kg
ED50 at 1 h (Induction of mydriasis; pupil diameter >25 units 1 h post-administration, read-out: ED50 MYD Test 1): > 10 mg/kg
Compound: Cc1ncc(-c2cnn3c2C(=O)N(c2ccc(C(F)(F)F)c(Cl)c2)C[C@@H]3C)[nH]1 [Compound 27]
ED50 (Wiga Wistar rats): 0.2 mg/kg
